A word on the inhibition: it is the relative decrease from the control value, in per cent.

Structures are written as SMILES.

Type in all cases: cell-based
Holding throughout (conditions): Homo sapiens, 72 h, 3 days, read-out: Inhibition rate

One assay relates to HuH-7 cells. The assay is described as follows: Anti-proliferative toxicity of C63 in tumor cell lines (CCK8): HuH-7. Here is the method:
(§1) Example 83: Detection of Anti-Proliferative Toxicity of C63 in Some Tumor Cell Lines
HuH-7 cells (purchased from the Cell Bank of the Chinese Academy of Sciences, Cat. No. SCSP-526) were subcultured in a culture medium (DMEM medium+[…] penicillin-streptomycin dual-antibiotic solution+10% fetal bovine serum) in an incubator at […] and 37° C.
HuH-7 cells were seeded at 5000 cells/well (90 μL) on a 96-well plate and cultured for 24 h.
(§2) 10 mM compound stock solutions were prepared in DMSO.
(§3) The compound stock solution was diluted with DMSO to give DMSO solutions 1-9 at concentrations of 0 μM, 2500 μM, 500 μM, 100 μM, 20 μM, 4 μM, 0.8 μM, 0.16 μM, and 0.032 μM.
(§4) 2 μL of each of solutions 1-9 was added to 98 μL of the medium to give mixed solutions 11-19 of the compound and the medium.
(§5) 10 μL of each of solutions 11-19 was added to the above cell seed solution to give a total volume of 100 μL (90 μL+10 μL).
(§6) The concentrations of the compound in the wells were 0 μM, 5.0 μM, 1.0 μM, 0.2 μM, 0.04 μM, 0.008 μM, 0.0016 μM, 0.00032 μM, and 0.000064 μM. All concentrations were in triplicate.
(§7) After the above-treated cells were cultured for 3 days, 10 μL of the CCK8 solution (DOJINDO, Cat. No. PF725) was added to each well. The plate was incubated in an incubator at 37° C. for 1-4 h and then detected on a microplate reader for the reading at 450 nm.

A further assay deals with MDA-MB-231 cells. Kind of assay: Anti-proliferative toxicity of C63 in tumor cell lines (CCK8): MDA-MB-231. Here is the method: as §1
MDA-MB-231 cells (purchased from the Cell Bank of the Chinese Academy of Sciences, Cat. No. TCHu227) were subcultured in a culture medium (L15 medium+1% penicillin-streptomycin dual-antibiotic solution+10% fetal bovine serum) in an incubator at 37° C.
MDA-MB-231 cells were seeded at 5000 cells/well (90 μL) on a 96-well plate and cultured for 24 h.
as §2, §3, §4, §5, §6, §7

For the next assay, the system named is DLD-1 cells. The assay is described as follows: Anti-proliferative toxicity of C63 in tumor cell lines (CCK8): DLD-1. How it is done: as §1
DLD-1 cells (purchased from the Cell Bank of the Chinese Academy of Sciences, Cat. No. TCHu134) were subcultured in a culture medium (RPMI-1640 medium+1% penicillin-streptomycin dual-antibiotic solution+10% fetal bovine serum) in an incubator at 5% carbon dioxide and 37° C.
DLD-1 cells were seeded at 2000 cells/well (90 μL) on a 96-well plate and cultured for 24 h.
as §2, §3, §4, §5, §6, §7

With `C[C@]12C=CC(=O)N[C@@H]1CC[C@@H]1[C@@H]2CC[C@]2(C)[C@@H](C(=O)Nc3cccc(N[C@@H]4CCC[C@@H](Nc5cccc6c5C(=O)N([C@H]5CCC(=O)NC5=O)C6=O)C4)c3)CC[C@@H]12` [C63, N-(3-(N—(N-(4-(2-(3S-(2,6-dioxopiperidine))-isoindole-1,3-dione))-1R,3R-cyclohexanediamine))phenyl)-3-oxo-4-aza-5α-androst-1-ene-17β-carboxamide], the inhibition at 64 pM in the assay with HuH-7 cells (0.000064 μM) came to 13.1%; with MDA-MB-231 cells (0.000064 μM), 27.6%; with DLD-1 cells (0.000064 μM), 0.83%. Also, the inhibition at 0.00032 µM amounted to 59.9% in the assay on HuH-7 cells (0.000320 μM), 62.8% in the assay on MDA-MB-231 cells (0.000320 μM) and 7.21% in the assay with DLD-1 cells (0.000320 μM). Also, the values for the inhibition at 0.0016 µM in the assay with HuH-7 cells (0.001600 μM), with MDA-MB-231 cells (0.001600 μM) and with DLD-1 cells (0.001600 μM) were 77.1%, 75.6% and 40.5%, respectively. For the same molecule, the inhibition at 0.008 µM in the assay with HuH-7 cells (0.008000 μM) was found to be 79.3%; with MDA-MB-231 cells (0.008000 μM), 79.3%; with DLD-1 cells (0.008000 μM), 67.5%. The inhibition at 0.04 µM in the assay on HuH-7 cells (0.040000 μM) stood at 78.3%; in the assay with MDA-MB-231 cells (0.040000 μM), 80.1%; in the assay with DLD-1 cells (0.040000 μM), 76.3%. For the same molecule, the inhibition at 0.2 µM in the assay with HuH-7 cells (0.200000 μM) amounted to 78.3%; in the assay with MDA-MB-231 cells (0.200000 μM), 79.9%; in the assay with DLD-1 cells (0.200000 μM), 78.3%. Moreover, the values for the inhibition at 1 µM in the assay with HuH-7 cells (1.000000 μM), in the assay with MDA-MB-231 cells (1.000000 μM) and with DLD-1 cells (1.000000 μM) were 75.1%, 78.8% and 79.7%, respectively. The inhibition at 5 µM in the assay with HuH-7 cells (5.000000 μM) came out at 73.1%; in the assay on MDA-MB-231 cells (5.000000 μM), 80.4%; in the assay on DLD-1 cells (5.000000 μM), 83.1%.

The values above are taken from patent US20250213701A1, “MEDICAMENT FOR TREATING HUMAN TUMOR BASED ON ERF3A-TARGETING PROTEOLYSIS MECHANISM” (SUZHOU DEGEN BIO-MEDICAL CO., LTD., priority 2022, published 2025).
